In patent US20020115661A1, “Method for treating chronic obstructive pulmonary disease” (priority 2000, published 2002):

Experiments:
[1] = Plasma CI-1034 concentrations in anesthetized dogs; type: in vivo, dog; conditions: for concentration at 5 min: plasma, intravenous
Procedure: (§1) Each animal received each treatment and served as its own control, with 7 days between treatments. […] Pulmonary function parameters were evaluated for 60 minutes after each dose, and included minute volume, respiratory rate, resistance, compliance, peak inspiratory and expiratory volumes, and tidal volume. Indirect blood pressure measurements were made periodically throughout the pulmonary data collection period since endothelin receptor antagonists are known to induce hypotension.
(§2) Plasma concentration in this dog 5 minutes postdose was 1960 μg/mL.

[2] = Octanol-aqueous partition coefficient, shake-flask method with HPLC; type: physicochemical
Procedure: Partition Coefficient: The octanol-aqueous partition coefficient at various pH values was determined by the shake-flask method using HPLC for measurement of the amount of compound in each phase.

anesthetized dogs = assay: Pulmonary function in anesthetized dogs; type: in vivo, dog
Procedure: as §1, §2

[3] = tested on: bET-1 pressor response (ETA receptors); assay: Blockade of bET-1 induced pressor responses in rats; type: in vivo, rat
Description: Vehicle-treated rats responded to the bET-1 challenge with peak increases in mean arterial pressure (MAP) of 58±2 mm Hg (N=7); baseline MAP was 82±5 mm Hg.

human ETB receptors = molecular target: T1, human ETB receptors (Homo sapiens, UniProt P24530); assay: [125I]ET-3 binding to recombinant human ETB receptors (CHO cell membranes); conditions: [125I]ET-3; CHO cell membranes with cloned human ETB receptors; read-out: ETB, IC50
T1 construct: expressed in transfected cells; host or cells: CHO cells
T1 sequence (P24530 27-442): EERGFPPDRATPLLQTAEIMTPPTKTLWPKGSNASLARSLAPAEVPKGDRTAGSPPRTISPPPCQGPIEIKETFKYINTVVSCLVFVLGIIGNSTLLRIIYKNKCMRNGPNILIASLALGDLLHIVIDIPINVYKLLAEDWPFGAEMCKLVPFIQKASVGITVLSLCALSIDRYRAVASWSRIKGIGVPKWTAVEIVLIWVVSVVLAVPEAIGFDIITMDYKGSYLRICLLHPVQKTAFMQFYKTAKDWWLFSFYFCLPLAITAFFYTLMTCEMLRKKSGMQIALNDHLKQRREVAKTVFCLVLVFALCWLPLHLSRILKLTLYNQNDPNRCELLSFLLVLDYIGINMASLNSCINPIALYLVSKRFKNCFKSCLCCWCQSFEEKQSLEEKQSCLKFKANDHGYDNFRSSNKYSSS

[4] = anesthetized dogs, 30 or 60 mg/kg

In the case of `CCc1cc(C2=C(C(=O)[O-])N(c3ccccc3C(F)(F)F)S(=O)(=O)c3ccccc32)cc2c1OCO2.[K+]` [CI-1034, 4-(7-Ethyl-1,3-benzodioxol-5-yl)-2-[2-(trifluoromethyl)phenyl]-2H-1 ,2-benzothiazine-3-carboxylic acid 1,1-dioxide monopotassium salt], the “plasma concentration versus dose” value ([1]; anesthetized dogs) is reported as “increased proportionally with dose”, the “Plasma Concentration” value ([1]; dog, 180 mg/kg, 5 minutes postdose, N = 1) is reported as 1960 µg/mL and the “exposure relative to projected human therapeutic Cmax of […]” value ([1]; dogs, 30 and 60 mg/kg, plasma 5 minutes postdose) is reported as “at least 940 times”. For the same molecule, the concentration at 5 min ([1]; dog, 30 mg/kg, 5 minutes postdose) was 301 µg/mL, the concentration at 5 min ([1]; dog, 60 mg/kg, 5 minutes postdose) was 574 µg/mL and the logD ([2]; pH 1, 0.1N Hydrochloric Acid) was 3.24. For the same molecule, the logD ([2]; pH 4, 0.05 M Sodium Acetate Buffer) was 2.93, the logD ([2]; pH 7.4, 0.05 M Potassium Phosphate Buffer) was 0.56 and the “effects on pulmonary function” value (anesthetized dogs; anesthetized dog, 40 mg/kg intravenous, one animal) was “No effects were apparent”. The pulmonary finding (anesthetized dogs; anesthetized dog, 180 mg/kg intravenous, within 5 minutes postdose, one animal) was “Respiratory arrest”, the “effect on blood pressure” value (anesthetized dogs; [4]) was “no significant effect” and the “effect on minute volume, pulmonary resistance, or pulmonary compliance” value (anesthetized dogs; [4]) was “no effect”. The “histopathology, lungs” value (anesthetized dogs; dog that died after 180 mg/kg) was “marked bilateral diffuse congestion”, the “histopathology, coronary arteries” value (anesthetized dogs; dog that died after 180 mg/kg, mild, primarily right coronary arteries) was “Arteriopathy” and the mortality (anesthetized dogs; dog, 180 mg/kg intravenous, one animal) was “found dead on Day 3”. For the same molecule, the “peak pressor response to bET-1 challenge (MAP increase)” value ([3]; 30 mg/kg oral gavage 24 hours before bET-1 1 nmol/kg IV) was 35±7 mm Hg, the “inhibition of the bET-1 pressor response compared to vehicle” value ([3]; 30 mg/kg oral gavage 24 hours before challenge, p<0.05) was 39% and the IC50 (human ETB receptors) was 1.6 µM.
